In one test the target is T1, Glucocorticoid receptor (Homo sapiens, UniProt P04150).
T1 sequence (P04150 whole entry): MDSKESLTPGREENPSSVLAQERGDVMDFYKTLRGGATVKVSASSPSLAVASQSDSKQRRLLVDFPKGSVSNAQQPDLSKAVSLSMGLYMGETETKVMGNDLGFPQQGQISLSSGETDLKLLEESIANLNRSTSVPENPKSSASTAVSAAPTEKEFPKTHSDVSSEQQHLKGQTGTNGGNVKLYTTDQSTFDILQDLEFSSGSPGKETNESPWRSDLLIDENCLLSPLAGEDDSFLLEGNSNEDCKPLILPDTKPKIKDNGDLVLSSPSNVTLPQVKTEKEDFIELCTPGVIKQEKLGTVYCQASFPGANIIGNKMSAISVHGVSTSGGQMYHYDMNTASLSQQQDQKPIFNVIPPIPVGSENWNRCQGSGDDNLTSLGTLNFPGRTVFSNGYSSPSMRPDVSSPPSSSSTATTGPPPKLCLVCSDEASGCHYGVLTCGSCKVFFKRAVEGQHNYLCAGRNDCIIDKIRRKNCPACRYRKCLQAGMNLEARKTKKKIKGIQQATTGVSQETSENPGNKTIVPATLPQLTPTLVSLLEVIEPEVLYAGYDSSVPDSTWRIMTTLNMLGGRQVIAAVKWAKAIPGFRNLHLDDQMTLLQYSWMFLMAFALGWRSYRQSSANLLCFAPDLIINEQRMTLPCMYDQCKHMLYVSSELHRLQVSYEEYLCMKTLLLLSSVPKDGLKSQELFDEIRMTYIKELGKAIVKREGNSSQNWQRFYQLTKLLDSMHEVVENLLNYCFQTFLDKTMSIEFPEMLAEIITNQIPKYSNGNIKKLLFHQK

For another test, the target named is Cannabinoid receptor 1 (Homo sapiens, UniProt P21554).
For another test, the target named is Melanocortin receptor 3 (Homo sapiens, UniProt P41968).
For test [1], the target named is cGMP-inhibited 3',5'-cyclic phosphodiesterase 3A (Homo sapiens, UniProt Q14432). The class given is functional.
The target in a further test is T2, Androgen receptor (Homo sapiens, UniProt P10275).
T2 sequence (P10275 whole entry): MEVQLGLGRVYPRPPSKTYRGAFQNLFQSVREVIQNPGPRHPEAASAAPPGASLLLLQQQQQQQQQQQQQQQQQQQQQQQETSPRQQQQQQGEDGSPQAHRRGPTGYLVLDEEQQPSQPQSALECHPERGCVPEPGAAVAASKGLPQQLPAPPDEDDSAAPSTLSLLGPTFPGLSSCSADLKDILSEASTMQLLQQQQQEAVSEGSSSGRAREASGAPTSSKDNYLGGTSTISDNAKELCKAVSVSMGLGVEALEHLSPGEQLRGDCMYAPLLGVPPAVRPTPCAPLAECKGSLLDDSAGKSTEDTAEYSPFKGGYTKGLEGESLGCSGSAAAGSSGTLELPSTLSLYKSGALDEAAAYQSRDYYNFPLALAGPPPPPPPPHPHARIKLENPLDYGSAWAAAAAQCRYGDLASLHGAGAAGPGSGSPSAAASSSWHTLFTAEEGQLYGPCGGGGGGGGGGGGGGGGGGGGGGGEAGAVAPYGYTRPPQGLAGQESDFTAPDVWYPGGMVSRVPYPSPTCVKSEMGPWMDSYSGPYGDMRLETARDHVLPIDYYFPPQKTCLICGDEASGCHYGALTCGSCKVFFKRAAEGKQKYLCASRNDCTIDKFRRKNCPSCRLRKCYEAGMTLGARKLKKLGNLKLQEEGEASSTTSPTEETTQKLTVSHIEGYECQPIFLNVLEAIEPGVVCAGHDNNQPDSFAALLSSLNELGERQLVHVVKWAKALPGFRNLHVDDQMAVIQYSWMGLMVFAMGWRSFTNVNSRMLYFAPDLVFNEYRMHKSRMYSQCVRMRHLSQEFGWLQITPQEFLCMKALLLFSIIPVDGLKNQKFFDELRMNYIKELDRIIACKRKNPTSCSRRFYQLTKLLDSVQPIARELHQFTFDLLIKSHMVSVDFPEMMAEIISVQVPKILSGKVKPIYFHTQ

Test [2] concerns the target Gamma-aminobutyric acid receptor subunit alpha-1 (Rattus norvegicus, UniProt P62813).
For test [3], the target named is T3, Gastrin/cholecystokinin type B receptor (Homo sapiens, UniProt P32239).
T3 sequence (P32239 whole entry): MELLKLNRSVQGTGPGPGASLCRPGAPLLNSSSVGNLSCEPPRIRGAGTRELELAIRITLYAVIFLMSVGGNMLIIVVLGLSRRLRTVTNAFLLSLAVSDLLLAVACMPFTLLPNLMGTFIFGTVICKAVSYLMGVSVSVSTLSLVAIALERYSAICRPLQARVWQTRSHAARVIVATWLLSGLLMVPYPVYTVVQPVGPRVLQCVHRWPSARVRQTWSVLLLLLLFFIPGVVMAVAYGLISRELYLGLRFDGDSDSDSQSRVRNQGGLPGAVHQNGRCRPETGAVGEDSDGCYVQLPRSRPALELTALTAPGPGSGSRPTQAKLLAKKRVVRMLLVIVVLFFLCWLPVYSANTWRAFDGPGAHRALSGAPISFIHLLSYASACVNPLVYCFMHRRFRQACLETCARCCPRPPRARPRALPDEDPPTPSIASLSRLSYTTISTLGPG

The target of test [4] is Sodium-dependent noradrenaline transporter (Homo sapiens, UniProt P23975).
Test [5] addresses T4, Alpha-2A adrenergic receptor (Homo sapiens, UniProt P08913).
T4 sequence (P08913 whole entry): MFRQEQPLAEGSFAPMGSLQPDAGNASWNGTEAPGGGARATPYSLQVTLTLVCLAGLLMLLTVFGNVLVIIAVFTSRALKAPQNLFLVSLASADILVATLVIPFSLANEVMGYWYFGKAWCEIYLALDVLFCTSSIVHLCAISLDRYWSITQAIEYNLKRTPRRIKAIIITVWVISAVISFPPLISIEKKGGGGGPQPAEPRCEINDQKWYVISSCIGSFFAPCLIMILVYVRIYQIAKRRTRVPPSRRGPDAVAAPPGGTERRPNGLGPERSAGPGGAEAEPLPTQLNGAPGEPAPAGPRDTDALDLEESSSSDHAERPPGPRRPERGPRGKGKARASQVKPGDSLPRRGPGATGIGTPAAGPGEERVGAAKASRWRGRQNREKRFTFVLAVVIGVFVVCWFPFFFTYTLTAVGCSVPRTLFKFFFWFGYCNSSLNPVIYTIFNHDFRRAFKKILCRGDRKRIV
The class given is functional, cell-based.

Consider six molecules from ChEMBL document CHEMBL5291721, “A preclinical secondary pharmacology resource illuminates target-adverse drug reaction associations of marketed drugs” (Nat Commun, 2023).

Where only a bound is given, the exact number is not on record here.
Note: assay procedure not described here.

Gamma-aminobutyric acid receptor subunit alpha-1, sequence (P62813 whole entry): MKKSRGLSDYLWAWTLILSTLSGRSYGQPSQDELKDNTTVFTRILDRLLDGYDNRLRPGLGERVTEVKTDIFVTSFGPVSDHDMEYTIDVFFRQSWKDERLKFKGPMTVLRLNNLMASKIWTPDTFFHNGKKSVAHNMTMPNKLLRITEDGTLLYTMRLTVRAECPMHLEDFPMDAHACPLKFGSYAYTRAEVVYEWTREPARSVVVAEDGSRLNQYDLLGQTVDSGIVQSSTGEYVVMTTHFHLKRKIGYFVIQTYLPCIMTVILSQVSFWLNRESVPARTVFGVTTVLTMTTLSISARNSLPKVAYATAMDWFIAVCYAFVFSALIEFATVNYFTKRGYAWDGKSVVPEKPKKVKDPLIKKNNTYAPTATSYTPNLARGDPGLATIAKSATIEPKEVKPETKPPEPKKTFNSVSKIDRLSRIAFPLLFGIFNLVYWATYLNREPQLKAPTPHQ
Melanocortin receptor 3, sequence (P41968 whole entry): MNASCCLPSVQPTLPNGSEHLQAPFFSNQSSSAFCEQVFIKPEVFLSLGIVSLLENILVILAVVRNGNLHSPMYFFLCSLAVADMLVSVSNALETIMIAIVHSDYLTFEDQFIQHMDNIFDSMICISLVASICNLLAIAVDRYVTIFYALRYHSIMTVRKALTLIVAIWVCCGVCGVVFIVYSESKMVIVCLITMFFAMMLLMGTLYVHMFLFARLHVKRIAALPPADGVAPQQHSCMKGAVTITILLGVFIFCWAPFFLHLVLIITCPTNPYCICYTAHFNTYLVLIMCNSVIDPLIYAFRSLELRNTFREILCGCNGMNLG
cGMP-inhibited 3',5'-cyclic phosphodiesterase 3A, sequence (Q14432 whole entry): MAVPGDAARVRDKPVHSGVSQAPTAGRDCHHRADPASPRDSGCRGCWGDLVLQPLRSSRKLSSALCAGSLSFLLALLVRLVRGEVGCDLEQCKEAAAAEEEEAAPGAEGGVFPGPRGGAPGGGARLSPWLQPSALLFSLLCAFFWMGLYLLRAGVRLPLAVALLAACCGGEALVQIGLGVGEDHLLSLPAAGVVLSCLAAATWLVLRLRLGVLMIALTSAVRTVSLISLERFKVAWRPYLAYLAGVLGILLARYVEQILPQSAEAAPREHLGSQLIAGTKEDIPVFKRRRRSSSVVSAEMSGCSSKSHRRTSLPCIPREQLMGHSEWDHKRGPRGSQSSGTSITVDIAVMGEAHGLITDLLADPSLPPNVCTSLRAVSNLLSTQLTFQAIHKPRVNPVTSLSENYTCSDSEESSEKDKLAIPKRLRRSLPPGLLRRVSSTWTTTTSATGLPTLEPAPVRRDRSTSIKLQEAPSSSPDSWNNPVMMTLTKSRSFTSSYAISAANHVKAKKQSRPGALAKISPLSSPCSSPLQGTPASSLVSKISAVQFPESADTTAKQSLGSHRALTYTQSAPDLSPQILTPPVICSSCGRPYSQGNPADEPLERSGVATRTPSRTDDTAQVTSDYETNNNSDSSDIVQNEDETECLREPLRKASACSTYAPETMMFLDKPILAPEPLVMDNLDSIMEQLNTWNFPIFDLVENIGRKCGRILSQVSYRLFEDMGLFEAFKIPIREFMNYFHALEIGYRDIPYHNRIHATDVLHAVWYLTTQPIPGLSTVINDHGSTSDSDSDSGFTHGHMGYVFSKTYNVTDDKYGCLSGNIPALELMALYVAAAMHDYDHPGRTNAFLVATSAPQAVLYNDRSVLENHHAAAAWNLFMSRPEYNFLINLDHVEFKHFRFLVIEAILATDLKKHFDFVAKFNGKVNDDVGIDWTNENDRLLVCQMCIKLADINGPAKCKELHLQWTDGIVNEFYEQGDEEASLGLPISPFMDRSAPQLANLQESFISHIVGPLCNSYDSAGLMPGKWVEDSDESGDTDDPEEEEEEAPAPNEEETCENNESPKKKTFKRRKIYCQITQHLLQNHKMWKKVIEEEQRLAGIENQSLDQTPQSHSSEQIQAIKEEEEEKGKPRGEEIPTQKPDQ
Sodium-dependent noradrenaline transporter, sequence (P23975 whole entry): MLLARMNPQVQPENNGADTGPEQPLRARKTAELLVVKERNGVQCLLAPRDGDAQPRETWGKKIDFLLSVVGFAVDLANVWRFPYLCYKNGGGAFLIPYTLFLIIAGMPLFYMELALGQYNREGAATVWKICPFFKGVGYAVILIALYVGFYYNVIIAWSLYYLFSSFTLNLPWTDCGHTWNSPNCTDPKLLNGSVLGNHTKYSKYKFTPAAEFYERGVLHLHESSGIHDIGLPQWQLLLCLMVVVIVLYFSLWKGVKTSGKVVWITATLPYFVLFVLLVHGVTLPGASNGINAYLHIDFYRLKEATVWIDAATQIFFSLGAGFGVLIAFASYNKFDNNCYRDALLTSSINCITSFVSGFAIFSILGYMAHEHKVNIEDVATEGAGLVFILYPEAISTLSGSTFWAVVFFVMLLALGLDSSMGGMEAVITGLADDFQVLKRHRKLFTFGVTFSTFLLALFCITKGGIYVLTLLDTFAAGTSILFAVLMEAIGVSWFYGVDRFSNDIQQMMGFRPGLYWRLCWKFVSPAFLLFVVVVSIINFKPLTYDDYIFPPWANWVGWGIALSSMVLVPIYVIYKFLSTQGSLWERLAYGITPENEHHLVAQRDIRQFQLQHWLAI
Cannabinoid receptor 1, sequence (P21554 whole entry): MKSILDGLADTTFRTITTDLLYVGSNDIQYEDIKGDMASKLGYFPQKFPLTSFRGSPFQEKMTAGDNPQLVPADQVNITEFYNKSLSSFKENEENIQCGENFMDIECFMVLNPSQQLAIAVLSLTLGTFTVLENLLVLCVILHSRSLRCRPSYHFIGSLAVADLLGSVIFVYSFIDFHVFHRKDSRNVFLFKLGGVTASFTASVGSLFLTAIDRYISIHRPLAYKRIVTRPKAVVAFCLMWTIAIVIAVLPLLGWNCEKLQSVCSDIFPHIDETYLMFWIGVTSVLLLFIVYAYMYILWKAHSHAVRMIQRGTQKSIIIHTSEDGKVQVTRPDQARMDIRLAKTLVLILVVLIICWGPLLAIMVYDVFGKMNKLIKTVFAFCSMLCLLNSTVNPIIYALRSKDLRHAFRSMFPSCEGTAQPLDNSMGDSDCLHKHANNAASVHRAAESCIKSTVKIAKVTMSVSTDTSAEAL

Consider `O=C(/C=C/c1cccc(S(=O)(=O)Nc2ccccc2)c1)NO` [BELINOSTAT], for which the AC50 (commonly the concentration at which the activity in the assay is half-maximal) at Glucocorticoid receptor is above 30 µM; on Cannabinoid receptor 1, above 10 µM; at Melanocortin receptor 3 it was above 30 µM; in [1], above 30 µM; at Androgen receptor, above 30 µM; in [2] it was above 30 µM. For the same molecule, the figures for the concentration at half-maximal activity (AC50) in test [3] and in test [4] were above 30 µM and above 10 µM, respectively.

With `N#Cc1ccc(Oc2ccc3c(c2)COB3O)cc1` [CRISABOROLE], the half-maximal activity concentration (AC50) (in test [1]; at Androgen receptor; in test [2]) was above 30 µM in each case.

`C[C@@H]1C[C@H]2[C@@H]3C[C@H](F)C4=CC(=O)C=C[C@]4(C)[C@@]3(F)[C@@H](O)C[C@]2(C)[C@@]1(OC(=O)c1ccco1)C(=O)SCF` [FLUTICASONE FUROATE]: the concentration at half-maximal activity (AC50) at Cannabinoid receptor 1 was 16.3 µM; at Melanocortin receptor 3 it was above 10 µM; in test [5], above 10 µM; in test [1] it was above 30 µM; on Androgen receptor it was 0.13 µM; in [2], above 30 µM. The AC50 in test [3] and in test [4] was above 10 µM throughout.

`COc1cc(C)c2c(Oc3cccc(C(F)(F)F)c3)c(OC)cc(NC(C)CCCN)c2n1` (stereo not given) [TAFENOQUINE]: the concentration at half-maximal activity (AC50) (at Androgen receptor; in test [2]) was above 30 µM throughout.

As to `O=S1(=O)CCN(CN2CCS(=O)(=O)NC2)CN1` [TAUROLIDINE], the half-maximal activity concentration (AC50) at Glucocorticoid receptor was above 10 µM; on Melanocortin receptor 3, above 30 µM; in test [5], above 30 µM; in test [1], above 30 µM; at Androgen receptor it was above 30 µM; in test [2], above 30 µM. The same molecule had an AC50 in test [4] above 30 µM.

Consider `CCCSc1nc(N[C@@H]2C[C@H]2c2ccc(F)c(F)c2)c2nnn([C@@H]3C[C@H](OCCO)[C@@H](O)[C@H]3O)c2n1` [TICAGRELOR], for which the half-maximal activity concentration (AC50) (on Androgen receptor; in test [2]) was above 30 µM in each case.
